Experimental data: patent publication US20260042731A1, “(2,4-DICHLOROPHENOXY)ACETIC ACID ANALOGS” (CORTEVA AGRISCIENCE LLC, priority 2022, published 2026)
Read-outs that look alike come from different tables or passages of the source.

Experiments:
[1] = Volatility of compounds measured by thermogravimetric analysis (TGA); assay type: physicochemical
[2] = tested on: Ambrosia artemisiifolia (AMBEL), common ragweed; assay: Postemergence herbicide evaluation, growth of Ambrosia artemisiifolia (AMBEL); assay type: in vivo; conditions: Ambrosia artemisiifolia, post-emergence, percent reduction in plant size relative to untreated control, read-out: AVE. AMBEL; for pest or weed control at 280 g/ha: 280 g ae/ha; for pest or weed control at 560 g/ha: 560 g ae/ha
[3] = tested on: glyphosate resistant Conyza canadensis (L.) (ERICA), horseweed; assay: Postemergence herbicide evaluation, growth of Conyza canadensis (ERICA); assay type: in vivo; conditions: Erigeron canadensis, post-emergence, percent reduction in plant size relative to untreated control, read-out: Ave. ERICA; for pest or weed control at 280 g/ha: 280 g ae/ha; for pest or weed control at 560 g/ha: 560 g ae/ha
[4] = tested on: Chenopodium album (CHEAL), common lambsquarters; assay: Postemergence herbicide evaluation, growth of Chenopodium album (CHEAL); assay type: in vivo; conditions: Chenopodium album, post-emergence, percent reduction in plant size relative to untreated control, read-out: Ave. CHEAL; for pest or weed control at 280 g/ha: 280 g ae/ha; for pest or weed control at 560 g/ha: 560 g ae/ha
[5] = tested on: Abutilon theophrasti (ABUTH), velvetleaf; assay: Postemergence herbicide evaluation, growth of Abutilon theophrasti (ABUTH); assay type: in vivo; conditions: Abutilon theophrasti, post-emergence, percent reduction in plant size relative to untreated control, read-out: AVE. ABUTH; for pest or weed control at 280 g/ha: 280 g ae/ha; for pest or weed control at 560 g/ha: 560 g ae/ha
[6] = tested on: weeds (ABUTH, AMATA, AMBEL, CHEAL, ERICA); assay: Postemergence herbicide evaluation, overall average % weed control across ABUTH, AMATA, AMBEL, CHEAL, ERICA; assay type: in vivo; conditions: post-emergence, average over the five weeds, read-out: Overall Ave % Weed Control; for pest or weed control at 280 g/ha: 280 g ae/ha; for pest or weed control at 560 g/ha: 560 g ae/ha
[7] = tested on: Amaranthus rudis (AMATA), tall water hemp; assay: Postemergence herbicide evaluation, growth of Amaranthus rudis (AMATA); assay type: in vivo; conditions: Amaranthus tuberculatus, post-emergence, percent reduction in plant size relative to untreated control, read-out: Ave. AMATA; for pest or weed control at 280 g/ha: 280 g ae/ha; for pest or weed control at 560 g/ha: 560 g ae/ha

Structure (SMILES)	TGA Data (rate of weight loss, volatility) [1] [µg/min]	pest or weed control at 280 g/ha ([2]; 168 h, 7 DAA) [%]	pest or weed control at 560 g/ha ([2]; 168 h, 7 DAA) [%]	pest or weed control at 280 g/ha ([2]; 336 h, 14 DAA) [%]	pest or weed control at 560 g/ha ([2]; 336 h, 14 DAA) [%]	pest or weed control at 280 g/ha ([2]; 504 h, 21 DAA) [%]	pest or weed control at 560 g/ha ([2]; 504 h, 21 DAA) [%]	pest or weed control at 280 g/ha ([3]; 168 h, 7 DAA) [%]	pest or weed control at 560 g/ha ([3]; 168 h, 7 DAA) [%]	pest or weed control at 280 g/ha ([3]; 336 h, 14 DAA) [%]	pest or weed control at 560 g/ha ([3]; 336 h, 14 DAA) [%]	pest or weed control at 280 g/ha ([3]; 504 h, 21 DAA) [%]	pest or weed control at 560 g/ha ([3]; 504 h, 21 DAA) [%]	pest or weed control at 280 g/ha ([4]; 168 h, 7 DAA) [%]	pest or weed control at 560 g/ha ([4]; 168 h, 7 DAA) [%]	pest or weed control at 280 g/ha ([4]; 336 h, 14 DAA) [%]	pest or weed control at 560 g/ha ([4]; 336 h, 14 DAA) [%]	pest or weed control at 280 g/ha ([4]; 504 h, 21 DAA) [%]	pest or weed control at 560 g/ha ([4]; 504 h, 21 DAA) [%]	pest or weed control at 280 g/ha ([5]; 168 h, 7 DAA) [%]	other results
O=C(COc1ccc(Cl)cc1Cl)ONC(=O)c1ccc(C(=O)NOC(=O)COc2ccc(Cl)cc2Cl)cc1 [Compound B4]	0.3	58	65	88	84	95	87	68	68	85	95	99	100	63	63	70	68	75	65	70	pest or weed control at 560 g/ha ([5]; 168 h, 7 DAA): 80%; pest or weed control at 280 g/ha ([5]; 336 h, 14 DAA): 78%; pest or weed control at 560 g/ha ([5]; 336 h, 14 DAA): 73%; pest or weed control at 280 g/ha ([5]; 504 h, 21 DAA): 83%; pest or weed control at 560 g/ha ([5]; 504 h, 21 DAA): 84%; pest or weed control at 280 g/ha ([6]; 168 h, 7 DAA): 65%; pest or weed control at 560 g/ha ([6]; 168 h, 7 DAA): 69%; pest or weed control at 280 g/ha ([6]; 336 h, 14 DAA): 78%; pest or weed control at 560 g/ha ([6]; 336 h, 14 DAA): 79%; pest or weed control at 280 g/ha ([6]; 504 h, 21 DAA): 83%; pest or weed control at 560 g/ha ([6]; 504 h, 21 DAA): 81%; pest or weed control at 280 g/ha ([7]; 168 h, 7 DAA): 68%; pest or weed control at 560 g/ha ([7]; 168 h, 7 DAA): 70%; pest or weed control at 280 g/ha ([7]; 336 h, 14 DAA): 68%; pest or weed control at 560 g/ha ([7]; 336 h, 14 DAA): 78%; pest or weed control at 280 g/ha ([7]; 504 h, 21 DAA): 65%; pest or weed control at 560 g/ha ([7]; 504 h, 21 DAA): 68%
N/C(=N\OC(=O)COc1ccc(Cl)cc1Cl)c1ccc(/C(N)=N/OC(=O)COc2ccc(Cl)cc2Cl)cc1 [Compound B5, (1,4)—N°1, N°4-Bis(2-(2,4-dichlorophenoxy)acetoxy)terephthalimidamide]	0.1	18	15	8	15	5	18	5	25	30	35	15	28	15	13	20	15	40	13	0	pest or weed control at 560 g/ha ([5]; 168 h, 7 DAA): 3%; pest or weed control at 280 g/ha ([5]; 336 h, 14 DAA): 10%; pest or weed control at 560 g/ha ([5]; 336 h, 14 DAA): 3%; pest or weed control at 280 g/ha ([5]; 504 h, 21 DAA): 10%; pest or weed control at 560 g/ha ([5]; 504 h, 21 DAA): 0%; pest or weed control at 280 g/ha ([6]; 168 h, 7 DAA): 13%; pest or weed control at 560 g/ha ([6]; 168 h, 7 DAA): 16%; pest or weed control at 280 g/ha ([6]; 336 h, 14 DAA): 14%; pest or weed control at 560 g/ha ([6]; 336 h, 14 DAA): 17%; pest or weed control at 280 g/ha ([6]; 504 h, 21 DAA): 17%; pest or weed control at 560 g/ha ([6]; 504 h, 21 DAA): 18%; pest or weed control at 280 g/ha ([7]; 168 h, 7 DAA): 25%; pest or weed control at 560 g/ha ([7]; 168 h, 7 DAA): 25%; pest or weed control at 280 g/ha ([7]; 336 h, 14 DAA): 0%; pest or weed control at 560 g/ha ([7]; 336 h, 14 DAA): 18%; pest or weed control at 280 g/ha ([7]; 504 h, 21 DAA): 15%; pest or weed control at 560 g/ha ([7]; 504 h, 21 DAA): 33%
C/C(C/C(C)=N/OC(=O)COc1ccc(Cl)cc1Cl)=N\OC(=O)COc1ccc(Cl)cc1Cl [Compound B6, (2,4)-Pentane-2,4-dione O,O-di(2-(2,4-dichlorophenoxy)acetyl) dioxime]	3.7	68	70	93	93	96	100	68	75	93	88	98	99	70	70	88	78	93	75	78	pest or weed control at 560 g/ha ([5]; 168 h, 7 DAA): 83%; pest or weed control at 280 g/ha ([5]; 336 h, 14 DAA): 90%; pest or weed control at 560 g/ha ([5]; 336 h, 14 DAA): 86%; pest or weed control at 280 g/ha ([5]; 504 h, 21 DAA): 92%; pest or weed control at 560 g/ha ([5]; 504 h, 21 DAA): 89%; pest or weed control at 280 g/ha ([6]; 168 h, 7 DAA): 72%; pest or weed control at 560 g/ha ([6]; 168 h, 7 DAA): 74%; pest or weed control at 280 g/ha ([6]; 336 h, 14 DAA): 88%; pest or weed control at 560 g/ha ([6]; 336 h, 14 DAA): 85%; pest or weed control at 280 g/ha ([6]; 504 h, 21 DAA): 91%; pest or weed control at 560 g/ha ([6]; 504 h, 21 DAA): 89%; pest or weed control at 280 g/ha ([7]; 168 h, 7 DAA): 75%; pest or weed control at 560 g/ha ([7]; 168 h, 7 DAA): 73%; pest or weed control at 280 g/ha ([7]; 336 h, 14 DAA): 75%; pest or weed control at 560 g/ha ([7]; 336 h, 14 DAA): 80%; pest or weed control at 280 g/ha ([7]; 504 h, 21 DAA): 75%; pest or weed control at 560 g/ha ([7]; 504 h, 21 DAA): 83%
